Laboratory results from patent US20110136728A1, “METHODS OF INCREASING BONE FORMATION USING LEPTIN-RELATED PEPTIDES” (priority 2009, published 2011).
“Also recorded” adds a separate entry of the source. Non-standard residues stand in square brackets, D forms with d. Residues, ends and D or L forms follow the SMILES beside them.

How the values were obtained:
[1] = system: male C57BL/6J wild type mice; experiment: Oral delivery (gavage) in ad libitum fed wild type mice: body weight, food and water intake, serum glucose, serum osteocalcin; type: in vivo, mouse
Experimental: (§1) Six week-old male C57BL/6J wild type and ob/ob mice were obtained from Jackson Laboratories (Bar Harbor, Me., USA). The animals were housed individually polycarbonate cages fitted with stainless steel wire lids and air filters, and supported on ventilated racks (Thoren Caging Systems, Hazelton, Pa., USA) in the Albany Medical College Animal Resources Facility. The mice were maintained at a constant temperature (24° C.) with lights on from 07:00 to 19:00, and allowed food and water ad libitum for 6 days following arrival. During the test period, mice were fed ad libitum or calorie restricted to 60% of normal. Water intake was allowed ad libitum.
(§2) On day 1 of the study, and on each day thereafter, a water bottle containing 200 ml of water was added to each cage between 09:00 and 10:00 h. Mice fed ad libitum were given 200 g of pelleted rodent diet (Prolab Rat, Mouse, Hamster 3000, St. Louis, Mo.; 22% crude protein, 5% crude fat, 5% fiber, 6% ash, 2.5% additional minerals) between 09:00 and 10:00 h each day. The mice were weighed once daily between 09:00 and 10:00 h on an Acculab V-333 electronic balance (Cole-Parmer, Vernon Hills, Ill., USA). Calorie-restricted wild type and ob/ob mice received 60% of normal daily intake. Twenty four hours later, food and water remaining in the cages was measured to the nearest 0.1 g and 0.1 ml, respectively. To assure fasting glucose levels on days in which blood glucose was measured, food was removed from the cages between 09:00 and 10:00 h, and replaced immediately before the beginning of the dark cycle.
(§3) Mouse [D-Leu-4]OB3 was prepared commercially as a C-terminal amide by Bachem (Torrance, Calif., USA). The peptide was dissolved in 0.3% Intravail A3® (Aegis Therapeutics, San Diego, Calif. USA) reconstituted in water, and administered by gavage once daily for 10 days at a concentration of 1 mg/200 μl immediately before the start of the dark cycle. Is has previously been shown that this is the optimum concentration of mouse [D-Leu-4]-OB3 and its related bioactive peptide amides, for regulating energy expenditure, glucose levels, and insulin sensitivity in two genetically obese mouse models (see Rozhayskaya-Arena M. et al., Endocrinology 141:2501-2517 (2000); Grasso P. et al. Regulatory Pep. 101:123-129 (2001); Grasso P. et al., Diabetes 48:2204-2209 (1999), Grasso P. et al., Endocrinology 138:1413-1418 (1997); Grasso P. et al., Regulatory Peptides 85:93-100 (1999); and Grasso P. et al., Diabetes 48:2204-2209 (1999)). Vehicle injected control mice received 200 ul of Intravail A3® only.
(§4) Initial blood samples were drawn by snipping the end of the tail of each mouse at the beginning of the study (day 0); subsequent samples were obtained by gently removing the scab. Blood was taken 1 h before the onset of the dark period at the beginning of the study, and after 2, 4, 6, 8, and 10 days of treatment. The blood was applied to a test strip, and glucose levels were measured with a Glucometer Elite glucose meter (Bayer, Elkhart, Ind., USA).
(§5) At the end of the study, the mice were anesthetized with isoflurane (5%) and exsanguinated by cardiac puncture. Euthanasia was confirmed by cervical dislocation. The blood was collected in sterile nonheparinized plastic centrifuge tubes and allowed to stand at room temperature for 1 h. The clotted blood was rimmed from the walls of the tubes with sterile wooden applicator sticks. Individual serum samples were prepared by centrifugation for 30 min at 2600×g in an Eppendorf 5702R, A-4-38 rotor (Eppendorf North America, Westbury, N.Y., USA). The serum samples in each experimental group (n=6) were pooled and stored frozen until assayed for osteocalcin content.
(§6) Serum osteocalcin in the pooled samples was assayed in triplicate with a mouse osteocalcin ELISA kit obtained from Biomedical Technologies, Inc. (Stoughton, Mass., USA) according to the instructions supplied by the manufacturer. […]

[2] = Observation of toxic side effects in treated animals; type: in vivo; conditions: treated mice or rats
[3] = system: calorie restricted male C57BL/6J ob/ob mice; experiment: Oral delivery (gavage) in calorie restricted (40%) ob/ob mice: body weight, serum glucose, serum osteocalcin; type: in vivo, mouse
Experimental: as §1, §2, §3, §4, §5, §6

male C57BL/6J ob/ob mice = experiment: Oral delivery (gavage) in ad libitum fed ob/ob mice: body weight, food and water intake, serum glucose, serum osteocalcin; type: in vivo, mouse
Experimental: as §1, §2, §3, §4, §5, §6

[4] = system: calorie restricted male C57BL/6J wild type mice; experiment: Oral delivery (gavage) in calorie restricted (40%) wild type mice: body weight, serum glucose, serum osteocalcin; type: in vivo, mouse
Experimental: as §1, §2, §3, §4, §5, §6

[5] = 1 mg/day, 10 days, gavage in Intravail
[6] = after 10 days, 1 mg/day gavage in Intravail
[7] = day 0, 1 mg/day, 10 days, gavage in Intravail
[8] = ob/ob, ad libitum fed, 1 mg/day, 10 days, gavage in Intravail
[9] = ob/ob, ad libitum fed, 10 days gavage
[10] = ob/ob, ad libitum fed, oral delivery

CC(C)C[C@@H](NC(=O)[C@H](CO)NC(=O)[C@H](CS)NC(=O)[C@@H](N)CO)C(=O)N1CCC[C@H]1C(=O)N[C@@H](CCC(N)=O)C(=O)N[C@H](C(N)=O)[C@@H](C)O [mouse [D-Leu-4]-OB3] (H-SCS[dL]PQT-NH2; N-terminus assumed)
Body weight (% of initial) [1, 5]: 95.6 ± 0.5 % of initial
Final body weight [1, 5]: 21.6 ± 0.7 g
Serum osteocalcin [1, 5]: 246.6 ± 6.0 ng/mL
daily food intake compared to Intravail treated controls ([1]; 10 days gavage): not associated with any significant difference in daily food intake
serum glucose after treatment ([1]; 10 days gavage): significantly (P<0.001) reduced
serum osteocalcin levels compared to Intravail treated controls ([1]; 10 days gavage): essentially the same; also recorded: slightly elevated
water intake compared to Intravail treated controls ([1]; 10 days gavage): essentially the same; also recorded: no significant difference in water intake
loss of initial body weight ([1]; after 10 days gavage): 4.4%
Final serum glucose [1, 6]: 124.5 ± 24.6 mg/dL
Initial serum glucose ([1]; day 0): 173.3 ± 7.3 mg/dL
Initial body weight [1, 7]: 22.6 ± 0.8 g
reduction of body weight gain ([1]; oral delivery): 4.4%
reduction of food intake ([1]; oral delivery): 6.8%
reduction of serum glucose ([1]; oral delivery): 28.2%
toxic side effects (words) [2]: lack of toxicity
toxic side effects (words) ([2]; listed as [D-Leu-4]-OB3): no obvious toxic side effects have ever been observed
Body weight (% of initial) [3, 5]: 90.0 ± 0.8 % of initial
Final body weight [3, 5]: 30.8 ± 0.6 g
Serum osteocalcin [3, 5]: 290.1 ± 3.2 ng/mL
serum glucose compared to calorie restriction alone ([3]; 10 days gavage): normalized levels; also recorded: significantly (P<0.001) reduced serum glucose levels to levels Seen in wild type mice allowed food ad libitum
serum osteocalcin, effect on decrease caused by calorie restriction ([3]; 10 days gavage): significantly elevated serum osteocalcin levels; also recorded: prevented this decrease
weight loss compared to calorie restriction with Intravail alone (words) ([3]; 10 days gavage): did not enhance this weight loss; also recorded: essentially the same
elevation of serum osteocalcin ([3]; after 10 days of treatment): 93.4%
Final serum glucose [3, 6]: 176.5 ± 32.8 mg/dL
Initial serum glucose ([3]; day 0): 480.2 ± 36.7 mg/dL
Initial body weight [3, 7]: 34.2 ± 0.4 g
serum osteocalcin relative to wild type control mice (male C57BL/6J ob/ob mice; ob/ob mice): significantly elevated serum osteocalcin to levels higher than those seen in wild type control mice
Body weight (% of initial) (male C57BL/6J ob/ob mice; [8]): 96.3 ± 0.4 % of initial
Final body weight (male C57BL/6J ob/ob mice; [8]): 34.2 ± 0.9 g
Serum osteocalcin (male C57BL/6J ob/ob mice; [8]): 300.5 ± 7.0 ng/mL
daily food intake compared to Intravail alone (male C57BL/6J ob/ob mice; [9]): significantly (P<0.001) less
daily water consumption compared to Intravail treated counterparts (male C57BL/6J ob/ob mice; [9]): significantly (P<0.05) less water per day
serum glucose after treatment (male C57BL/6J ob/ob mice; [9]): significantly (P<0.001) reduced serum glucose levels, but not to normal levels
loss of initial body weight (male C57BL/6J ob/ob mice; ob/ob, ad libitum fed, after 10 days gavage): 3.7%
Final serum glucose (male C57BL/6J ob/ob mice; ob/ob, ad libitum fed, after 10 days, 1 mg/day gavage in Intravail): 380.5 ± 24.3 mg/dL
Initial serum glucose (male C57BL/6J ob/ob mice; ob/ob, ad libitum fed, day 0): 503.9 ± 19.6 mg/dL
Initial body weight (male C57BL/6J ob/ob mice; ob/ob, ad libitum fed, day 0, 1 mg/day, 10 days, gavage in Intravail): 35.5 ± 0.8 g
reduction of body weight gain (male C57BL/6J ob/ob mice; [10]): 11.6%
reduction of food intake (male C57BL/6J ob/ob mice; [10]): 16.5%
reduction of serum glucose (male C57BL/6J ob/ob mice; [10]): 24.4%
reduction of water intake (male C57BL/6J ob/ob mice; [10]): 22.4%
Body weight (% of initial) [4, 5]: 90.0 ± 0.8 % of initial
Final body weight [4, 5]: 20.3 ± 0.7 g
Serum osteocalcin [4, 5]: 216.6 ± 0.4 ng/mL
serum osteocalcin, effect on decrease caused by calorie restriction ([4]; 10 days gavage): prevented this decrease; also recorded: significantly (P<0.001) elevated serum osteocalcin levels to levels Seen in Intravail® treated wild type mice fed ad libitum
weight loss compared to calorie restriction with Intravail alone (words) ([4]; 10 days gavage): did not enhance this weight loss
weight loss compared to calorie restriction with Intravail alone (words) ([4]; 10 days gavage, listed as mouse [D-leu-4]-OB3): essentially the same
Final serum glucose [4, 6]: 134.8 ± 14.8 mg/dL
Initial serum glucose ([4]; day 0): 186.7 ± 36.7 mg/dL
Initial body weight [4, 7]: 22.6 ± 0.8 g
